Data reported in PubChem BioAssay (NCI).
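Each compound was tested at five concentrations against cells in 96-well plates for 48 hours. The concentration for full growth arrest is given as TGI.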

How the values were obtained:
Assay in all cases: NCI tumour cell line growth inhibition, 48 h
HCT-15 colon = system: HCT-15 colon
SK-MEL-2 melanoma = system: SK-MEL-2 melanoma
SF-539 CNS = system: SF-539 CNS
MDA-N = system: MDA-N
CCRF-CEM leukemia = system: CCRF-CEM leukemia
SN12C renal = system: SN12C renal
MOLT-4 leukemia = system: MOLT-4 leukemia
SK-MEL-28 melanoma = system: SK-MEL-28 melanoma
786-0 renal = system: 786-0 renal
A549 NSCLC = system: A549 NSCLC
HS 578T breast = system: HS 578T breast
HT29 colon = system: HT29 colon
CAKI-1 renal = system: CAKI-1 renal
HCC-2998 colon = system: HCC-2998 colon
TK-10 renal = system: TK-10 renal
K-562 leukemia = system: K-562 leukemia
MDA-MB-435 = system: MDA-MB-435
OVCAR-4 ovarian = system: OVCAR-4 ovarian
SK-OV-3 ovarian = system: SK-OV-3 ovarian
OVCAR-5 ovarian = system: OVCAR-5 ovarian

SMILES	TGI (HCT-15 colon)	TGI (SK-MEL-2 melanoma)	TGI (SF-539 CNS)	TGI (MDA-N)	TGI (CCRF-CEM leukemia)	TGI (SN12C renal)	TGI (MOLT-4 leukemia)	TGI (SK-MEL-28 melanoma)	TGI (786-0 renal)	TGI (A549 NSCLC)	TGI (HS 578T breast)	TGI (HT29 colon)	TGI (CAKI-1 renal)	TGI (HCC-2998 colon)	TGI (TK-10 renal)	TGI (K-562 leukemia)	TGI (MDA-MB-435)	TGI (OVCAR-4 ovarian)	TGI (SK-OV-3 ovarian)	TGI (OVCAR-5 ovarian)
Cc1ccc(/C=C2\Cc3cc(C)c(C)cc3C2=O)c(C(=O)O)c1	> 100 µM	> 100 µM	74.7 µM	> 100 µM	> 100 µM	> 100 µM	> 100 µM	> 100 µM	> 100 µM	> 100 µM	> 100 µM	> 100 µM	> 100 µM	> 100 µM	> 100 µM	> 100 µM	–	–	–	–
N#Cc1c(-c2ccccc2)cc(-c2ccccc2)n(C2OCC(O)C(O)C2O)c1=S (centres undefined)	60.6 µM	62.3 µM	41.9 µM	55 µM	93.1 µM	–	> 100 µM	77.1 µM	49.1 µM	57.4 µM	> 100 µM	80 µM	61.5 µM	–	58.2 µM	> 100 µM	45.2 µM	70.6 µM	27.3 µM	58.5 µM
CCC(C)N1CN(c2ccccc2)C2(CCN(CCCSc3ccc(F)cc3)CC2)C1=O (centres undefined)	4.2 µM	–	6.32 µM	10.7 µM	7.22 µM	> 100 µM	13.3 µM	23.8 µM	7.88 µM	15.1 µM	–	8.3 µM	11 µM	4.22 µM	11.2 µM	6.26 µM	11.7 µM	–	19.1 µM	7.06 µM
CN(CCNC(=S)c1cn(C)c2c1ccc1ccccc12)CCNC(=S)c1cn(C)c2c1ccc1ccccc12	> 100 µM	> 100 µM	> 100 µM	–	> 100 µM	> 100 µM	> 100 µM	> 100 µM	> 100 µM	> 100 µM	> 100 µM	> 100 µM	> 100 µM	> 100 µM	> 100 µM	> 100 µM	> 100 µM	> 100 µM	> 100 µM	> 100 µM
CNC(=O)N1N[C@H](c2ccccc2)[C@@H]1c1ccccc1	64 µM	32 µM	33.3 µM	> 100 µM	> 100 µM	62.7 µM	71.1 µM	40.7 µM	> 100 µM	> 100 µM	> 100 µM	32.3 µM	> 100 µM	68.8 µM	> 100 µM	54.5 µM	–	> 100 µM	91.2 µM	> 100 µM
O=C1/C(=C/c2cccs2)NC(=S)N1CN1CCCCC1	> 100 µM	> 100 µM	–	> 100 µM	> 100 µM	> 100 µM	> 100 µM	> 100 µM	> 100 µM	> 100 µM	> 100 µM	> 100 µM	–	–	> 100 µM	> 100 µM	> 100 µM	> 100 µM	> 100 µM	> 100 µM
CCN1C[C@]2(C)CC[C@H](OC)C34C5C[C@@H]6[C@@H](OC)C[C@@](OC)(C5[C@H]6OCc5ccccc5)C(C13)[C@H](OC(C)=O)[C@@H]42 (some centres undefined)	> 100 µM	> 100 µM	> 100 µM	> 100 µM	> 100 µM	> 100 µM	> 100 µM	> 100 µM	> 100 µM	> 100 µM	> 100 µM	> 100 µM	–	–	> 100 µM	> 100 µM	> 100 µM	> 100 µM	> 100 µM	> 100 µM
CC(C)CCC[C@@H](C)[C@H]1CC[C@H]2C3=C[C@H](OS(=O)(=O)O)[C@@]4(O)C[C@@H](O)CC[C@]4(C)[C@@]3(O)CC[C@]12C	> 100 µM	> 100 µM	> 100 µM	> 100 µM	> 100 µM	> 100 µM	> 100 µM	> 100 µM	> 100 µM	> 100 µM	–	> 100 µM	> 100 µM	> 100 µM	> 100 µM	> 100 µM	> 100 µM	> 100 µM	> 100 µM	> 100 µM
O=C1CSC(c2ccccc2O)N1c1ccc(Oc2ccc(Cl)cc2)c(Cl)c1 (centres undefined)	46.9 µM	65.7 µM	32.9 µM	–	65.1 µM	39.5 µM	81 µM	57.4 µM	36.4 µM	49.3 µM	38 µM	37.3 µM	74 µM	40.4 µM	> 100 µM	> 100 µM	69 µM	66.1 µM	47.9 µM	81.8 µM
C=C(CCC=C(C)C)C1CC=C(C)CC1 (centres undefined)	39.6 µM	37.5 µM	68.2 µM	37.9 µM	–	41.3 µM	–	–	35.7 µM	39 µM	59 µM	–	42.2 µM	–	> 100 µM	–	35.7 µM	–	> 100 µM	> 100 µM
C[C@@]1(OC(=O)c2cc([N+](=O)[O-])cc([N+](=O)[O-])c2)C[C@@H]2CCCC[C@@H]21	> 100 µM	> 100 µM	> 100 µM	> 100 µM	> 100 µM	> 100 µM	> 100 µM	> 100 µM	> 100 µM	> 100 µM	> 100 µM	> 100 µM	> 100 µM	> 100 µM	> 100 µM	> 100 µM	–	> 100 µM	> 100 µM	> 100 µM
